For data set [1], the target named is T1, Metabotropic glutamate receptor 5 (Homo sapiens, UniProt P41594). The data set is described as follows: Antagonist activity at human mGluR5 expressed in human embryonic kidney cells assessed as inhibition of L-glutamate-induced calcium release at 10 uM by calcium-5 reagent-based fluorescence assay relative to control. Format: functional, cell-based.
Target sequence in this assay (P41594 21-1212 limits assumed): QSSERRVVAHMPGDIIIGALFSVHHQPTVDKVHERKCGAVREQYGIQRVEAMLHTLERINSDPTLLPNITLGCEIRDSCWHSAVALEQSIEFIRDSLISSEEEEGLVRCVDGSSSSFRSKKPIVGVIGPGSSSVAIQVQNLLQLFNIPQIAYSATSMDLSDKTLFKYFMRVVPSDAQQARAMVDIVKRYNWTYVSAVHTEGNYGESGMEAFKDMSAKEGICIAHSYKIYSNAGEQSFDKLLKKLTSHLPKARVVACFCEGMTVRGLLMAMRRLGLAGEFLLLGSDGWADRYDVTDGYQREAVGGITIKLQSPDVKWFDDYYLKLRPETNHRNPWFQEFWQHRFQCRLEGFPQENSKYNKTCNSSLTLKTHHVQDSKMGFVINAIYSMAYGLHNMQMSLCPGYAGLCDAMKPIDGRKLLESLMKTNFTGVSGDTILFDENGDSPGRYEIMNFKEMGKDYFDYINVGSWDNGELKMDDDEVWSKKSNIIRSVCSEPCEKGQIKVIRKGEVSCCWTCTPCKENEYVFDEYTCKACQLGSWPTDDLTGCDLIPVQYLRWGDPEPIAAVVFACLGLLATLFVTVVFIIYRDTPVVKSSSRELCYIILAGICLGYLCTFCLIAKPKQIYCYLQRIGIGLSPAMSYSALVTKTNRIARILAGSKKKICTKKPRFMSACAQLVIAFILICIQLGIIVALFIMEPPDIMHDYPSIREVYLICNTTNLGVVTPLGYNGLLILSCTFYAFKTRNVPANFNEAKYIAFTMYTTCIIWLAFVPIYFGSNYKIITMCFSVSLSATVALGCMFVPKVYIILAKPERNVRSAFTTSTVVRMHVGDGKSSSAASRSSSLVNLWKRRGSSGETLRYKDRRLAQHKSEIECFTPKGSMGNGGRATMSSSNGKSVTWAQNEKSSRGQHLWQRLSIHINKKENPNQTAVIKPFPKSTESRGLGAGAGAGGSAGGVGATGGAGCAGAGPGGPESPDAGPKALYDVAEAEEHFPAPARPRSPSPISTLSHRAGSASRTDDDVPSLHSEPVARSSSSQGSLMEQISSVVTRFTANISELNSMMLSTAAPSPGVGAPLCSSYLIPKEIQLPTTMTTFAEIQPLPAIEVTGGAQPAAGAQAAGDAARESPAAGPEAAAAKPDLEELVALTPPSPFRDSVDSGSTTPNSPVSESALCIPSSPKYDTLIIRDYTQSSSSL
The target in data set [2] is T2, Metabotropic glutamate receptor 1 (Homo sapiens, UniProt Q13255). The data set is described as follows: Antagonist activity at human mGluR1 expressed in human Chem-3 cells assessed as inhibition of L-glutamate-induced calcium release at 10 uM by calcium-5 reagent-based fluorescence assay relative to control. Format: functional, cell-based.
Target sequence in this assay (Q13255 19-1194 limits assumed): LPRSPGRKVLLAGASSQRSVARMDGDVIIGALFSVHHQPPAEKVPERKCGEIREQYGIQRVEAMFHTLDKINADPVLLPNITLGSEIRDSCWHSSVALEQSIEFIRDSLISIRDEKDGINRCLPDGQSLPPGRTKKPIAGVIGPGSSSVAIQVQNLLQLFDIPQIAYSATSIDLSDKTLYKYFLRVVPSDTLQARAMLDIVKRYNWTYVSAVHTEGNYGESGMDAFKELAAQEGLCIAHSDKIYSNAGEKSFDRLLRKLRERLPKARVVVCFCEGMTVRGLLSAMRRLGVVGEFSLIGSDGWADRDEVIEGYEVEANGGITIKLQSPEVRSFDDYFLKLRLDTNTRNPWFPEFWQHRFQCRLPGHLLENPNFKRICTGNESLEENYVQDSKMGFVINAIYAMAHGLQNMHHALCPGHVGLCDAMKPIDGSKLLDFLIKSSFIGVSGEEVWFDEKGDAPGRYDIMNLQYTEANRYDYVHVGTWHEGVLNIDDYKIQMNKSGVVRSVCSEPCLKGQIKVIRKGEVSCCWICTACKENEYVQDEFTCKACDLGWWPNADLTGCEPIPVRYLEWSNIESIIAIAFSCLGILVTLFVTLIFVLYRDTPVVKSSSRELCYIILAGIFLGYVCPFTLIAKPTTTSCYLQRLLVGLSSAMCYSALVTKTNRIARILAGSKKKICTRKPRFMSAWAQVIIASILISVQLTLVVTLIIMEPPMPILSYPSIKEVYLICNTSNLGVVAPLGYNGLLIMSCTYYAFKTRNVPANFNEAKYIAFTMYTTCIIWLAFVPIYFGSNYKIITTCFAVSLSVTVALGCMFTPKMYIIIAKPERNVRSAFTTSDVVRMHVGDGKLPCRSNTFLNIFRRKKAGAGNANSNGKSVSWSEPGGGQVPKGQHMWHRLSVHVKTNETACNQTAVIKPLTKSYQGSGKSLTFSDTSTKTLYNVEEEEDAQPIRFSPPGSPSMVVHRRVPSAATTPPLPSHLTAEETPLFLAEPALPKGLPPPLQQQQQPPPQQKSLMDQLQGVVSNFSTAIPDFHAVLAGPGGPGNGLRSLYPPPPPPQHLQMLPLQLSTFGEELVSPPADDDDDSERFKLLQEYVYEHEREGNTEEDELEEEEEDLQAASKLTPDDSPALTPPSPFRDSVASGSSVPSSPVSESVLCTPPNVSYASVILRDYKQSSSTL
Data set [3] relates to Rattus norvegicus. Put plainly: Analgesic activity in rat spinal nerve ligation model of neuropathic pain assessed as recovery from cold allodynia at 100 mg/kg, po administered on day 14 post ligation surgery measured after 1 hr relative to control. Format: functional.
Data set [4] concerns Rattus norvegicus. Put plainly: Analgesic activity in rat spinal nerve ligation model of neuropathic pain assessed as recovery from mechanical allodynia at 100 mg/kg, po administered on day 14 post ligation surgery measured after 3 hrs relative to control. Format: functional.
Data set [5] has as its target T2, Metabotropic glutamate receptor 1. The data set is described as follows: Antagonist activity at human mGluR1 expressed in human Chem-3 cells assessed as inhibition of L-glutamate-induced calcium release by calcium-5 reagent-based fluorescence assay. Format: functional, cell-based.
Target sequence in this assay (Q13255 whole entry): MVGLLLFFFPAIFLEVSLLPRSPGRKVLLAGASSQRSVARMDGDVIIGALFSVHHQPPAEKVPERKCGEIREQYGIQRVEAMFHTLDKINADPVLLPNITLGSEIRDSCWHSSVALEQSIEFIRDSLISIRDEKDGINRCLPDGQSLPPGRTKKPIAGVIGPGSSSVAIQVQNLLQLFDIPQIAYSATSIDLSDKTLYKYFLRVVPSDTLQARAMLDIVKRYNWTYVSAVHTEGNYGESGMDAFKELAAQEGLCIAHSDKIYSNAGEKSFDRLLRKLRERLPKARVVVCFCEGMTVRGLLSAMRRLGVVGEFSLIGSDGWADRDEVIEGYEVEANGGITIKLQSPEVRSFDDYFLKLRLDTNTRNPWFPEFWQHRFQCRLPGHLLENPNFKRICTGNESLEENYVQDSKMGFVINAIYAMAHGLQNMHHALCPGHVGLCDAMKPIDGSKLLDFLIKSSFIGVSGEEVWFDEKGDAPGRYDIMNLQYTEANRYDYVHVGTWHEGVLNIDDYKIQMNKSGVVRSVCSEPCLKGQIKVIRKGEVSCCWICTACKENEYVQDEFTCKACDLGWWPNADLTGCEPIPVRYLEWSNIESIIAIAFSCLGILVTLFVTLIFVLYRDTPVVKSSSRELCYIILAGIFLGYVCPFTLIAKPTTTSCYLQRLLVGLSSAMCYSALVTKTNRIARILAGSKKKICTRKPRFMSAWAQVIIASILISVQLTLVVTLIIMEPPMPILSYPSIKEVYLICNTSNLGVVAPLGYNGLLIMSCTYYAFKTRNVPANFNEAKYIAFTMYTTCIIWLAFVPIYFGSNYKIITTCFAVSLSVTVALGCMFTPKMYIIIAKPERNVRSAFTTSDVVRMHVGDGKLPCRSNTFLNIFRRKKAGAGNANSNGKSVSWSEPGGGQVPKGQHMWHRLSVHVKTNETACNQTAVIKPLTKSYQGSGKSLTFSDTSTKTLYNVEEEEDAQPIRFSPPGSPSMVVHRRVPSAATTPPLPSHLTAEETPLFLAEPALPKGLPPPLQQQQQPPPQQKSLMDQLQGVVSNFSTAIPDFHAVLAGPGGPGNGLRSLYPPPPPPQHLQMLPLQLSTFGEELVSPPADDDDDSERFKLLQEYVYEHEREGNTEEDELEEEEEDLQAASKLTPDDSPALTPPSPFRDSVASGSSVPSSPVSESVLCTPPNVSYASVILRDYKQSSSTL
Data set [6] has as its target CYP2D6 (Homo sapiens, UniProt P10635). Put plainly: Inhibition of recombinant human CYP2D6 assessed as remaining activity at 10 uM preincubated for 5 mins followed by substrate and NADP addition measured after 20 mins by fluorescence assay relative to control. Format: ADME. To be noted: read-out: Activity.
Data set [7] addresses T3, CYP1A2 (Homo sapiens, UniProt P05177).
T3 sequence (P05177 whole entry): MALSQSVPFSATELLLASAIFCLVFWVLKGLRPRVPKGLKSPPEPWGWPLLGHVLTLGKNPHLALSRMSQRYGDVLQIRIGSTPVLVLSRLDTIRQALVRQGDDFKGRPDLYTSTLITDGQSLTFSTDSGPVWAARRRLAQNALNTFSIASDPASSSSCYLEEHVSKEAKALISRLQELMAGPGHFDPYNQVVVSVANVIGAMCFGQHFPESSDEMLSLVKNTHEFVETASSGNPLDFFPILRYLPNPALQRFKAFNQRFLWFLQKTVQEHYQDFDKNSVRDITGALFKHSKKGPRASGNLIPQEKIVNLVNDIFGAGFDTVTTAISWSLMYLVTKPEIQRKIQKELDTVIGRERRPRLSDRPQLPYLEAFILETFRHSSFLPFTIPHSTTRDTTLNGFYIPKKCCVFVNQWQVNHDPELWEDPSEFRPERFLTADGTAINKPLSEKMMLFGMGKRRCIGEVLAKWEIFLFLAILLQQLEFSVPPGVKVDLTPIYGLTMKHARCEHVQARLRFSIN
Put plainly: Inhibition of recombinant human CYP1A2 assessed as remaining activity at 10 uM preincubated for 5 mins followed by substrate and NADP addition measured after 20 mins by fluorescence assay relative to control. Format: ADME. To be noted: read-out: Activity.

The nature of data set [8]: Metabolic stability in human liver microsomes assessed as compound remaining at 1 uM after 30 mins by LC-MS/MS analysis in presence of NADPH. Format: ADME. The following applies: read-out: Stability. (In general: Microsomes from liver hold many membrane-bound enzymes, among them those of drug oxidation.)
Data set [9] has as its target CYP3A4 (Homo sapiens, UniProt P08684). The data set is described as follows: Inhibition of recombinant human CYP3A4 assessed as remaining activity at 10 uM preincubated for 5 mins followed by substrate and NADP addition measured after 20 mins by fluorescence assay relative to control. Format: ADME. The following applies: read-out: Activity.
For data set [10], the target named is CYP2C19 (Homo sapiens, UniProt P33261). Put plainly: Inhibition of recombinant human CYP2C19 assessed as remaining activity at 10 uM preincubated for 5 mins followed by substrate and NADP addition measured after 20 mins by fluorescence assay relative to control. The following applies: read-out: Activity. Format: ADME.
In data set [11] the target is CYP2C9 (Homo sapiens, UniProt P11712). The data set is described as follows: Inhibition of recombinant human CYP2C9 assessed as remaining activity at 10 uM preincubated for 5 mins followed by substrate and NADP addition measured after 20 mins by fluorescence assay relative to control. Format: ADME. To be noted: read-out: Activity.
Sequence of CYP2C9 (P11712 whole entry): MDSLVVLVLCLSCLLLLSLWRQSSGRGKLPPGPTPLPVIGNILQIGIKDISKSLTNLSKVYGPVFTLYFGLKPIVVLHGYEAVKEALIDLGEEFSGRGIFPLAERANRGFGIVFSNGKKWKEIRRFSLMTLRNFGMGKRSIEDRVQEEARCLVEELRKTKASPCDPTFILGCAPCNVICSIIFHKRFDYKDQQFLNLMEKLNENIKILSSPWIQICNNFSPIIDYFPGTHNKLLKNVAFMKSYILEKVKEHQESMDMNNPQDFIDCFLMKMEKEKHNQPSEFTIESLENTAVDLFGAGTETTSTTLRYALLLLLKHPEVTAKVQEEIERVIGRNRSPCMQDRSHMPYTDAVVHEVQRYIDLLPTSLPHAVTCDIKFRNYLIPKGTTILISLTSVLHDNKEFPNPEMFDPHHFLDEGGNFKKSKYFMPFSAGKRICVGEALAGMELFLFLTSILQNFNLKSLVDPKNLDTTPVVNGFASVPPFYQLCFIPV
Data set [12] addresses T1, Metabotropic glutamate receptor 5. Put plainly: Antagonist activity at human mGluR5 expressed in human embryonic kidney cells assessed as inhibition of L-glutamate-induced calcium release by calcium-5 reagent-based fluorescence assay. Format: functional, cell-based.

Consider 36 molecules from ChEMBL document CHEMBL3421577, “Discovery and biological evaluation of tetrahydrothieno[2,3-c]pyridine derivatives as selective metabotropic glutamate receptor 1 antagonists for the potential treatment of neuropathic pain” (Eur J Med Chem, 2015).

Molecules are shown by their SMILES. pIC50: −log10 of the molar value. Calls of active or inactive are those of the source. The calls are words filed in the database; no cut-off is given here.

Sequence of CYP3A4 (P08684 whole entry): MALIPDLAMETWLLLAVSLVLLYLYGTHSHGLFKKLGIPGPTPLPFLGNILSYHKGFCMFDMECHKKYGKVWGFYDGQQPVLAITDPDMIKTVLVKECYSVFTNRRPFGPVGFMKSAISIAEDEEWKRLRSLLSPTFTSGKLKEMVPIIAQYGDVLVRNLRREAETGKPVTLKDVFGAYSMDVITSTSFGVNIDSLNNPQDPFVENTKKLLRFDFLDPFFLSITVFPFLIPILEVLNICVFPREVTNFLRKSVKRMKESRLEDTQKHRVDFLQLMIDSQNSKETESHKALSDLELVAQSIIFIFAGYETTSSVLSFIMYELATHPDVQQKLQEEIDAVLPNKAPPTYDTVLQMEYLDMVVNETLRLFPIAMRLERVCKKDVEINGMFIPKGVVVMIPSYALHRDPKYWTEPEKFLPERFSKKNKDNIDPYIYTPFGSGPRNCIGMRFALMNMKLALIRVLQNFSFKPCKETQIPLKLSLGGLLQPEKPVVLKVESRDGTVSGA
Sequence of CYP2D6 (P10635 whole entry): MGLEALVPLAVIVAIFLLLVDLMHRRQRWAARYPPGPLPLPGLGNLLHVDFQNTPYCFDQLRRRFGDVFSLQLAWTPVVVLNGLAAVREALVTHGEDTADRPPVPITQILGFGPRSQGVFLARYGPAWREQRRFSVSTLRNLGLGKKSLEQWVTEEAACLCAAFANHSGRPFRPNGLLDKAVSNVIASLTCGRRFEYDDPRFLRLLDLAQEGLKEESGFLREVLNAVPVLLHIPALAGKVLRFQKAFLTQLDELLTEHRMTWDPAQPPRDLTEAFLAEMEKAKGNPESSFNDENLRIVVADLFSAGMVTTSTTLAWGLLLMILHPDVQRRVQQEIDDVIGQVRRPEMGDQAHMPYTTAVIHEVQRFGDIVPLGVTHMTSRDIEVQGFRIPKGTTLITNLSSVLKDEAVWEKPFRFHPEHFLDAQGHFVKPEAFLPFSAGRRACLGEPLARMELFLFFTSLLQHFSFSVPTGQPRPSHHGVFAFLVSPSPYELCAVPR

For orientation: inhibition means the change of the read-out against control, counted positive when it falls. Regarding `COc1ccc(C(=O)N2CCc3c(sc(NCc4ccc(C#N)cc4)c3C#N)C2)cc1`, the inhibition in data set [1] turned out to be 41.5%; in data set [2], 10.9%.
The corresponding values for `CC(C)c1cc(C(=O)N2CCc3c(sc(NC(=O)c4ccccc4)c3C#N)C2)[nH]n1` are 39.3% and 14.6%.
With `NCC1(CC(=O)O)CCCCC1` [GABAPENTIN], the Activity is recorded as 40% in data set [3] and 80% in data set [4].
As a reminder, the pIC50 is the IC50 on a negative log10 scale, so that one unit is a factor of ten. In the case of `CC(C)c1cc(C(=O)N2CCc3c(sc(NC(=O)c4ccc(Cl)cc4)c3C#N)C2)[nH]n1`, the values for the inhibition in data set [1] and in data set [2] were -4.28% and 62.5%, respectively. Moreover, the pIC50 in data set [5] was 4.91.
For the molecule `Cc1ccc(C(=O)N2CCc3c(sc(NCc4cccc(F)c4)c3C#N)C2)cc1`, the inhibition came out at 54.8% in data set [1] and 43.9% in [2].
The corresponding values for `COc1ccc(C(=O)Nc2sc3c(c2C#N)CCN(C(=O)c2cc(C)n[nH]2)C3)cc1` are 28.3% and -9.58%.
For the molecule `N#Cc1c(NCc2ccccc2)sc2c1CCN(C(=O)c1cnccc1F)C2`, the inhibition in data set [1] is 16%; in [2], 90.1%. Moreover, in data set [5], the pIC50 is 5.91.
On to `CC(C)c1cc(C(=O)N2CCc3c(sc(NC(=O)c4ccc(F)cc4)c3C#N)C2)[nH]n1`, for which the inhibition in [1] is -2.3%; in data set [2], 28.5%.
For `N#Cc1c(NCc2ccc(Cl)cc2)sc2c1CCN(C(=O)c1ccc(F)cc1)C2` the same measures were 25.3% and 35.2%.
`Cc1ccc(C(=O)N2CCc3c(sc(NCc4ccccc4)c3C#N)C2)cc1`: the inhibition in data set [1] was 24.3%; in data set [2] it was 69.7%. Further, in data set [5], the pIC50 is 5.33.
`Cc1ccc(C(=O)N2CCc3c(sc(NCc4ccc(F)cc4)c3C#N)C2)cc1`: the results for the inhibition in [1] and in data set [2] were 37.6% and 46.6%, respectively.
In the case of `N#Cc1c(NCc2ccc(F)cc2)sc2c1CCN(C(=O)c1ccccc1)C2`, the activity at 20 min, 10 µM in data set [6] was determined as 36.4%; in data set [7], 52%; in data set [9] it was 24.2%; in [10] it was 3.81%; in data set [11] it was 5.48%. The remaining at 0.5 h, 1 µM in data set [8] amounted to 33.4%. The inhibition in [1] is 26.4%; in data set [2], 77.8%. The pIC50 in [5] was 5.74.
Turning to `COc1cccc(CNc2sc3c(c2C#N)CCN(C(=O)c2ccc(F)cc2)C3)c1`, the activity at 20 min, 10 µM was determined as 35% in data set [6]; 78.5% in data set [7]; 12.5% in data set [9]; 7.99% in [10]; 6.46% in data set [11]. Moreover, the remaining at 0.5 h, 1 µM in data set [8] was found to be 12.1%. The figures for the inhibition in data set [1] and in data set [2] were 31.1% and 67.5%, respectively. Besides, the pIC50 in data set [5] is 5.51.
Take `Cc1cc(C(=O)N2CCc3c(sc(NC(=O)c4ccccc4)c3C#N)C2)[nH]n1`: the inhibition came out at 27.8% in data set [1] and 8.51% in [2].
With `COc1ccc(C(=O)N2CCc3c(sc(NCc4cccc(F)c4)c3C#N)C2)cc1`, the pIC50 in data set [12] was 5.33. Also, the inhibition in data set [1] is 69%; in data set [2], 42.8%.
`CC(C)c1cc(C(=O)N2CCc3c(sc(NCc4ccc(F)cc4)c3C#N)C2)[nH]n1`: the results for the inhibition in data set [1] and in data set [2] were 43.1% and 40.7%, respectively.
For the molecule `COc1ccc(C(=O)Nc2sc3c(c2C#N)CCN(C(=O)c2cc(C(C)C)n[nH]2)C3)cc1`, the pIC50 in [12] was 5.32. Also, the inhibition in [1] is 63.1%; in [2], -6.42%.
Take `N#Cc1c(NCc2cccc(F)c2)sc2c1CCN(C(=O)c1ccc(F)cc1)C2`: the inhibition in [1] was determined as 36.5%; in [2], 82%. For the same molecule, the pIC50 in data set [5] was 5.62.
With `Cc1cccc(C(=O)N2CCc3c(sc(NCc4ccccc4)c3C#N)C2)c1`, the activity at 20 min, 10 µM came to 35.7% in [6]; 42.6% in data set [7]; 9.36% in data set [9]; 4.57% in [10]; 4.33% in [11]. In addition, the remaining at 0.5 h, 1 µM in [8] came out at 16.4%. Besides, the inhibition in [1] was found to be 8.8%; in data set [2] it was 73.5%. For the same molecule, the pIC50 in data set [5] is 5.50.
Consider `CC(C)c1cc(C(=O)N2CCc3c(sc(NCc4ccccc4)c3C#N)C2)[nH]n1`, for which the inhibition turned out to be 8.89% in data set [1] and 54.4% in data set [2]. Further, the pIC50 in data set [5] is 4.36.
Turning to `N#Cc1c(NCc2ccccc2)sc2c1CCN(C(=O)c1ccc(F)cc1)C2`, the activity at 20 min, 10 µM in data set [6] amounted to 42%; in [7], 58.1%; in data set [9], 20%; in [10] it was 9.94%; in [11] it was 5.48%. In addition, in data set [8], the remaining at 0.5 h, 1 µM turned out to be 49.4%. In data set [3], the Activity result is “Active”. For the same molecule, in data set [4], the Activity entry was “inactive”. Moreover, the values for the inhibition in data set [1] and in data set [2] were 26.1% and 91.5%, respectively. In addition, the negative logarithm of the IC50 (pIC50) in data set [5] is 6.22.
As to `Cc1cc(C(=O)N2CCc3c(sc(NCc4ccc(Cl)cc4)c3C#N)C2)[nH]n1`, the inhibition in [1] was determined as 31.2%; in data set [2] it was 40.9%.
`N#Cc1c(NCc2cccc(F)c2)sc2c1CCN(C(=O)c1ccccc1)C2`: the inhibition was 44.2% in [1] and 63.9% in data set [2]. For the same molecule, the negative logarithm of the IC50 (pIC50) in [5] is 5.27.
Turning to `N#Cc1c(NCc2ccc(F)cc2)sc2c1CCN(C(=O)c1ccn[nH]1)C2`, the values for the inhibition in data set [1] and in [2] were 13.5% and 91.4%, respectively. Besides, the pIC50 in [5] is 5.69.
Regarding `Cc1cc(C(=O)N2CCc3c(sc(NC(=O)c4ccc(Cl)cc4)c3C#N)C2)[nH]n1`, the results for the inhibition in data set [1] and in data set [2] were -2.15% and 42.2%, respectively.
Turning to `N#Cc1c(NCc2ccc(F)cc2)sc2c1CCN(C(=O)c1ccc(F)cc1)C2`, the inhibition in [1] turned out to be 22.3%; in data set [2] it was 73.1%.
For `Cc1cc(C(=O)N2CCc3c(sc(NCc4ccc(F)cc4)c3C#N)C2)[nH]n1`, the results for the inhibition in [1] and in [2] were 37.6% and 84.2%, respectively. Further, the pIC50 in data set [5] is 5.61.
Consider `Cc1cc(C(=O)N2CCc3c(sc(NC(=O)c4ccc(F)cc4)c3C#N)C2)[nH]n1`, for which the results for the inhibition in data set [1] and in data set [2] were 13.7% and 31%, respectively.
Consider `N#Cc1c(NCc2ccccc2)sc2c1CCN(C(=O)c1ccccc1)C2`, for which the inhibition came out at 46% in data set [1] and 66.4% in data set [2]. The pIC50 in [5] was 5.55.
For the molecule `N#Cc1c(NCc2cccc(F)c2)sc2c1CCN(C(=O)c1ccc(Cl)cc1)C2`, the inhibition in [1] amounted to 60%; in data set [2], 41.2%.
Consider `CC(C)c1cc(C(=O)N2CCc3c(sc(NCc4ccc(Cl)cc4)c3C#N)C2)[nH]n1`, for which the inhibition in [1] amounted to 24.8%; in data set [2] it was 46.3%.
As to `N#Cc1c(NCc2ccccc2)sc2c1CCN(C(=O)c1ccn[nH]1)C2`, the values for the inhibition in data set [1] and in data set [2] were 4.48% and 94.9%, respectively. Besides, the pIC50 in [5] was 5.96.
With `N#Cc1c(NCc2ccccc2)sc2c1CCN(C(=O)c1cccc(F)c1)C2`, the figures for the inhibition in [1] and in [2] were 29.8% and 79%, respectively. The pIC50 in data set [5] is 5.54.
`COc1cccc(CNc2sc3c(c2C#N)CCN(C(=O)c2cccc(F)c2)C3)c1`: the inhibition was 33.2% in data set [1] and 15.5% in data set [2].
The corresponding values for `N#Cc1ccc(CNc2sc3c(c2C#N)CCN(C(=O)c2ccccc2)C3)cc1` are 3.16% and 36.8%.
Turning to `COc1ccc(C(=O)N2CCc3c(sc(NCc4ccc(F)cc4)c3C#N)C2)cc1`, the pIC50 in data set [12] was 5.84. The inhibition in [1] stood at 68%; in data set [2], 47.7%.
